In ChEMBL document CHEMBL2163299, “Cytotoxic effects of combination of oxidosqualene cyclase inhibitors with atorvastatin in human cancer cells” (J Med Chem, 2012):
Active and inactive are the calls of the source. The calls are words filed in the database; no cut-off is given here.

What was measured:
LN-229 [1] = experiment: Inhibition of DNA synthesis in human LN229 cells assessed as inhibition of tritiated thymidine incorporation at 1 to 3 uM after 24 hrs by beta counting; format: functional, cell-based
HeLa = experiment: cells; conditions: Homo sapiens, 72 h
Description: Cytotoxicity against human HeLa cells after 72 hrs by MTT assay

[2] = Cytotoxicity against human LNZ308 cells after 72 hrs by MTT assay; format: functional, cell-based; conditions: LNZ308, 72 h
[3] = Cytotoxicity against human Me300 cells after 72 hrs by MTT assay; format: functional, cell-based; conditions: Me300, 72 h
Lanosterol synthase = target: T1, Lanosterol synthase (Homo sapiens, UniProt P48449); experiment: Inhibition of human liver microsome 2,3-OSC after 1 hr by Silica gel plate phosphor imaging
T1 sequence (P48449 whole entry): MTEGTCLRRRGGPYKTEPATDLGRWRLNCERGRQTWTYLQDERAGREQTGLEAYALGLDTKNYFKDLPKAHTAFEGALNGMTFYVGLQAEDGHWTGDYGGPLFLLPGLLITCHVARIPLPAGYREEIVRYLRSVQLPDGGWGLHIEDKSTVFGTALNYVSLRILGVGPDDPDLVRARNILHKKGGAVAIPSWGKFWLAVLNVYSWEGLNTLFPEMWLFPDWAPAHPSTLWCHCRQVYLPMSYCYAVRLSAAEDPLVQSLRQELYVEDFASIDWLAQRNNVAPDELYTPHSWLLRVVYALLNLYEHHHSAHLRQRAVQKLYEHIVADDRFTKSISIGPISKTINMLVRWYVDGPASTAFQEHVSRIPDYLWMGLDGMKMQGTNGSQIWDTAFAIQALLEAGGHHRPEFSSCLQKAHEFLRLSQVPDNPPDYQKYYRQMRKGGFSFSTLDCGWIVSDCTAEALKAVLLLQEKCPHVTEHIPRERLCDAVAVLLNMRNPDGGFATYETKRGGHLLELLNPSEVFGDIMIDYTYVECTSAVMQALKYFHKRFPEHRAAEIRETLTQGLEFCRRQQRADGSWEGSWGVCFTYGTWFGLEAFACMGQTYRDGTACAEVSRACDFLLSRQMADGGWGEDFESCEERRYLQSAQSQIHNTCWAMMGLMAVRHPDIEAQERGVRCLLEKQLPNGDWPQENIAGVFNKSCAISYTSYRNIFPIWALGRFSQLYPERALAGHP

MCF7 = experiment: cells; conditions: Homo sapiens, MCF7, 72 h
Description: Cytotoxicity against human MCF7 cells after 72 hrs by MTT assay

A549 = experiment: Cytotoxicity against human A549 cells after 72 hrs by MTT assay; format: functional, cell-based; conditions: A549, 72 h
[4] = Chemical stability of compound at pH 7.4 after 24 hrs; format: physicochemical; conditions: buffer, pH 7.4, 24 h
OVCAR = experiment: Cytotoxicity against human OVCAR cells after 72 hrs by MTT assay; format: functional, cell-based
[5] = pampa, pH 6.5
Description: Permeability of compound at pH 6.5 assessed as compound binding to lipid membrane by PAMPA

LN-18 [6] = experiment: Inhibition of DNA synthesis in human LN18 cells assessed as inhibition of tritiated thymidine incorporation at 1 to 3 uM after 24 hrs by beta counting; format: functional, cell-based
LNCaP = experiment: Cytotoxicity against human LNCAP cells after 72 hrs by MTT assay; format: functional, cell-based
[7] = Chemical stability of compound at pH 4.0 after 24 hrs; format: physicochemical; conditions: buffer, pH 4, 24 h
Caco-2 = experiment: cells; conditions: Homo sapiens, Caco-2, 72 h
Description: Cytotoxicity against human Caco2 cells after 72 hrs by MTT assay

cells = conditions: Homo sapiens, HCEC, 72 h
Description: Cytotoxicity against human HCEC cells assessed as reduction in cell survival after 72 hrs by MTT assay

[8] = (§1) Cytotoxicity against human LN229 cells assessed as reduction in cell survival after 72 hrs by MTT assay; format: functional, cell-based; conditions: LN-229, 72 h
[9] = (§2) Cytotoxicity against human LN18 cells assessed as reduction in cell survival after 72 hrs by MTT assay; format: functional, cell-based; conditions: LN-18, 72 h
physchem = conditions: 1-octanol/TAPSO buffer, pH 7.4
Description: 1-Octanol-TAPSO buffer distribution coefficient, log D of the compound at pH 7.4 by shake-flask method

in vitro = conditions: pampa, pH 6.5
Description: Apparent permeability of compound at pH 6.5 by PAMPA

KB = experiment: Cytotoxicity against human KB cells after 72 hrs by MTT assay; format: functional, cell-based
LN-229 [10] = experiment: Inhibition of lipid synthesis in human LN229 cells assessed as [14C]acetate incorporation after 24 hrs by Beta-counting; format: functional, cell-based
LN-18 [11] = experiment: Inhibition of lipid synthesis in human LN18 cells assessed as [14C]acetate incorporation after 24 hrs by Beta-counting; format: functional, cell-based
LN-18 [12] = experiment: Cytotoxicity against human LN18 cells after 72 hrs by MTT assay in presence of atorvastatin; format: functional, cell-based
LN-229 [13] = experiment: as §1; format: functional, cell-based
LN-18 [14] = experiment: as §2; format: functional, cell-based
LN-18 [15] = experiment: Cytotoxicity against human LN18 cells at 2 to 10 uM after 72 hrs by MTT assay in presence of atorvastatin; format: functional, cell-based
[16] = Cytotoxicity against human HCEC cells at 2 to 10 uM after 72 hrs in by MTT assay in presence of atorvastatin; format: cell-based
LN-229 [17] = experiment: Cytotoxicity against human LN229 cells at 4 to 10 uM after 72 hrs by MTT assay; format: functional, cell-based
LN-229 [18] = experiment: Cytotoxicity against human LN229 cells at 4 to 10 uM after 72 hrs by MTT assay in presence of atorvastatin; format: functional, cell-based
LN-229 [19] = experiment: Induction of [14C]acetate incorporation in human LN229 cells at 2 uM after 24 hrs by Beta-counting; format: functional, cell-based
[20] = Cytotoxicity against human LN229 cells assessed as decrease in cell survival at 2 uM after 72 hrs by MTT assay in presence of 2.5 uM atorvastatin; format: functional, LN-229
LN-18 [21] = experiment: Induction of [14C]acetate incorporation in human LN18 cells at 2 uM after 24 hrs by Beta-counting in presence of 2.5 to 10 uM atorvastatin; format: functional, cell-based
LN-18 [22] = experiment: Induction of [14C]acetate incorporation in human LN18 cells at 2 uM after 24 hrs by Beta-counting; format: functional, cell-based
LN-229 [23] = experiment: Induction of [14C]acetate incorporation in human LN229 cells at 2 uM after 24 hrs by Beta-counting in presence of 2.5 to 10 uM atorvastatin; format: functional, cell-based
LN-229 [24] = experiment: Cytotoxicity against human LN229 cells at 4 uM after 72 hrs by MTT assay in presence of atorvastatin; format: functional, cell-based

SMILES	inhibition (LN-229 [1])	IC50 (HeLa) [µM]	IC50 [2] [µM]	IC50 [3] [µM]	IC50 (Lanosterol synthase) [µM]	IC50 (MCF7) [µM]	IC50 (A549) [µM]	Stability [4]	IC50 (OVCAR) [µM]	permeability [5] [%]	inhibition (LN-18 [6])	IC50 (LNCaP) [µM]	Stability [7]	IC50 (Caco-2) [µM]	IC50 (cells) [µM]	IC50 [8] [µM]	IC50 [9] [µM]	logD (physchem)	Papp (in vitro) [×10⁻⁶ cm/s]	IC50 (KB) [µM]	further results
CCN(CCO)CCCC#C[C@H]1CC[C@H](N(C)C(=O)Oc2ccc(Cl)cc2)CC1.Cl	Active	8.64	15.3	26.2	0.01	> 30	13.6	Stable	> 30	10	Active	23.6	Stable	4.81	29.1	21.1	13.4	2.51	2.87	5.86	
CN(CC[C@H]1CC[C@H](C(=O)N2CCC(O)CC2)CC1)C(=O)Oc1ccc(Cl)cc1	Active	21.8	> 30	25	0.0287	> 30	> 30	Stable	> 30	2	Active	5.55	Stable	> 30	> 30	> 30	> 30	2.93	5.05	7.58	
CC(C)c1c(C(=O)Nc2ccccc2)c(-c2ccccc2)c(-c2ccc(F)cc2)n1CC[C@@H](O)C[C@@H](O)CC(=O)O [ATORVASTATIN CALCIUM]	Active	4.22	7.44	1.2		> 30	> 30		> 30		Active	> 30				8.1	6.9			1.97	inhibition (LN-229 [10]): Dose-dependent effect; inhibition (LN-18 [11]): Dose-dependent effect
C=CCN(C)Cc1ccc(-c2ccc(C(=O)c3ccc(Br)cc3)cc2)cc1.Cl	Active	2.69	14.4	13.9	0.008	25.7	6.19	Stable	> 30	58	Active	5.07	Stable	3.81	> 30	17.9	2.3	3.13	0.64	2.03	Activity (LN-18 [12]): Active; Activity (LN-229 [13]): Dose-dependent effect; Activity (LN-18 [14]): Dose-dependent effect
CN(CCO)CCCCC[C@H]1CC[C@H](N(C)S(=O)(=O)c2ccc(C(F)(F)F)cc2)CC1.O=C(O)/C=C/C(=O)O	Active	4.53	> 30	20.9	0.0112	12.3	6.09	Stable	> 30	50	Active	> 30	Stable	2.67	19	> 30	> 30	3.07	1.79	4.28	
CCCN(C)CCCC#C[C@H]1CC[C@H](N(C)C(=O)Oc2ccc(Cl)cc2)CC1.O=C(O)/C=C/C(=O)O	Active	6.82	12.6	18.9	0.0078	> 30	8.41	Stable	> 30	0	Active	18.7	Stable	6.75	26.3	> 30	28	3.28	0.81	4.53	
C=CCN(C)CCCCC[C@H]1CC[C@H](N(C)C(=O)Oc2ccc(C(F)(F)F)cc2)CC1.O=C(O)CC(O)(CC(=O)O)C(=O)O	Active	1.06	2.1	16	0.005	20.7	6.93	Stable	12.9	25	Active	4.62	Stable	6.3	5.1	8.3	2.8	3.48	13	1.02	
CCN(CCO)CCCCOc1ccc2c(-c3ccc(Br)cc3)nsc2c1.Cl	Active	6.37	4.7	6.2	0.0178	5.58	5.14	Stable	16.7	37	Active	> 30	Stable	1.04	2.2	2.9	2	3.39	0.22	4.66	Activity (LN-18 [15]): Active; Activity [16]: Non-toxic; Activity (LN-229 [17]): Active; Activity (LN-229 [18]): Active; Activity (LN-229 [19]): Active; Activity [20]: 80%; Activity (LN-18 [21]): Active; Activity (LN-18 [22]): Active; Activity (LN-229 [13]): Dose-dependent effect; Activity (LN-18 [14]): Dose-dependent effect; Activity (LN-229 [23]): Active
C=CCN(C)CCCCCCOc1ccc2c(-c3ccc(Br)cc3)nsc2c1.O=C(O)/C=C/C(=O)O	Active	8.85	4.4	13.4		8.3	6.06	Stable	> 30	40	Active	19.5	Stable	1.97	4.8	5.2	7.6	3.43	0.57	8.52	Activity (LN-18 [15]): Active; Activity (LN-18 [14]): Dose-dependent effect; Activity (LN-229 [24]): Active
CCN(CCO)C[C@H]1CC[C@H](CCN(C)C(=O)Oc2ccc(C(F)(F)F)cc2)CC1.O=C(O)CC(O)(CC(=O)O)C(=O)O	Active	10	23.2	> 30	0.0127	> 30	22.7	Stable	> 30	5	Active	> 30	Stable	10	> 30	> 30	18.9	2.53	5.11	10	
